Assay results from ChEMBL document CHEMBL1165960, “Identification of the three-dimensional pharmacophore of kappa-opioid receptor agonists” (Bioorg Med Chem, 2010).

Assays:
[1] = Selectivity ratio of Ki for mu opioid receptor to kappa opioid receptor
[2] = molecular target: Kappa-type opioid receptor (Homo sapiens, UniProt P41145); assay: Binding affinity to kappa opioid receptor
Kappa-type opioid receptor, sequence (P41145 whole entry): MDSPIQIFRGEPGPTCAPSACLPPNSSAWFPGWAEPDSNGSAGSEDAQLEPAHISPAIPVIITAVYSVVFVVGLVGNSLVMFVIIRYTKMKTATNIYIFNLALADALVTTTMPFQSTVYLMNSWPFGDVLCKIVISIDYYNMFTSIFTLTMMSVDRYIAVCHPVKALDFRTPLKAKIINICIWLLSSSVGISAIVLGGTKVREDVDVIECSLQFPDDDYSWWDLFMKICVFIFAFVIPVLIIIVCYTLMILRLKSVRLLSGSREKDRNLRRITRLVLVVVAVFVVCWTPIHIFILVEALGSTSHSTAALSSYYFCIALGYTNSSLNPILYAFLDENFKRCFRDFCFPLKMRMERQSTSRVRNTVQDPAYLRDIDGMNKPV

| Compound | Ratio Ki [1] | Ki [2] [nM] |
| --- | --- | --- |
| CCC12CCN(CC3(O)CC3)C(Cc3ccc(O)cc31)C2(C)C (stereo unspecified) [BREMAZOCINE] | 3.8 | 0.04 |
| CN(C(=O)/C=C/c1ccco1)[C@@H]1CC[C@@]2(O)[C@H]3Cc4ccc(O)c5c4[C@@]2(CCN3CC2CC2)[C@H]1O5 | 2.6 |  |
| O=C(NC[C@H]1C[C@]23CCN(CC4CC4)[C@H](Cc4ccc(O)cc42)[C@]3(O)CO1)c1ccccc1 | 1 | 0.135 |
| COc1ccc([C@H]2CN3C(=NC[C@@H]3C)N2CCCc2ccccc2)cc1 |  | 39 |
| O=C(Nc1ccccc1)[C@H]1O[C@@]23CCC1(O)[C@@H]1Oc4c(O)ccc5c4[C@@]12CCN(CC1CC1)[C@@H]3C5 (single isomer, unassigned) | 1.9 | 0.111 |
| O=C(Nc1ccccc1)[C@@H]1O[C@@]23CC[C@@]1(O)[C@@H]1Oc4c(O)ccc5c4[C@@]12CCN(CC1CC1)[C@@H]3C5 | 1.3 | 0.152 |
| CN1c2ccccc2C(c2ccccc2F)=NCC1CNC(=O)c1ccsc1 (stereo unspecified) [TIFLUADOM] | 8.8 | 0.17 |
| COC(=O)[C@]12CN(C)C[C@](C(=O)OC)(C1=O)[C@@H](c1ccccn1)N(C)[C@H]2c1ccccn1 | > 66.7 | 15 |
| NC(=O)[C@H]1CSSC[C@@H](NC(=O)[C@@H](N)Cc2ccc(O)cc2)C(=O)N[C@@H](Cc2ccccc2)C(=O)N1 | 0.03 | 38.7 |
